Reference: patent publication US20150343016A1, “CHEMICAL ENTITIES AND THERAPEUTIC USES THEREOF” (The Regents of the University of Colorado, a body corporate, priority 2010, published 2015)

Tests used:
[1] = tested on: p53 mutant Drosophila larvae; experiment: Drosophila larval survival to adulthood (eclosion), drug with and without IR, p53 mutants; type: in vivo; conditions: drug alone (without radiation), wide range of doses
Protocol: (§1) To validate the identification of Bouvardin from the primary screen, the effect of this molecule on Drosophila larvae alone or in combination with radiation were assessed (FIG. 12). The screen was performed using irradiated mutant larvae. Hits from the screen were defined as those that reduced the survival of IRRADIATED larvae compared to the population of drugs being tested (approximately 80 molecules at a time) or compared to DMSO controls in the re-test. A hit could therefore act by enhancing the effect of radiation, or by simply killing larvae as a single agent, or both. To distinguish among these possibilities, hits from the screen were re-tested against larvae with and without irradiation.
(§2) In FIG. 12 survival after each treatment is expressed as the fraction of animals that emerged (“eclosed”) as viable adults. The averages have been normalized to the average fraction eclosed in no IR/drug control for the respective genotype. Error bars extend beyond fractional survival of 1.0 simply because of normalization. (A-C) Fraction eclosed for WT and grp and p53 mutants at 16 uM of Bouvardin, with and without IR. The data are averages of 3-8 biological replicates per sample. Dotted line on each graph denotes expected ‘fraction eclosed’ if drug and IR act additively. IR doses were 4000R for WT and grp and 3000R for p53 because of the higher radiation sensitivity of the latter. (D) Fraction eclosed for Minute mutants and yw controls after exposure to 0 (−IR) and 2000R (+IR) of X-rays. N ranged from 86-207 per genotype per treatment, in 3 biological replicates per sample. *=p<0.01; **=<0.001. 100R=1Gy. Error bar=1 standard deviation.
(§3) The activity of Bouvardin in Drosophila alone or in combination with ionizing radiation (IR) was assessed. Drug concentrations of 10-20 μM were used to approximate the conditions of the original screen. Third instar larvae were irradiated and cultured on medium containing drug. The survival of larvae was quantified 10 days later by measuring the rate of eclosion into adulthood. […] For example, IR alone reduces the eclosion of p53 mutants to 0.63±0.05 and 10 μM of drug reduces it to 0.82±0.15. The combination of Bouvardin and IR reduces eclosion to 0.49, nearly the exact number expected (0.63±0.05×0.82±0.15=0.51±0.10) if the two treatments produced an additive effect. The expected eclosion for additive effect of drug and radiation are denoted with a white dotted line in each graph.
(§4) Wild type flies were of the Sevelin stock. Mutants have been described before. p535A-1-4 results from targeted deletion of the gene, and is maintained and used as homogygotes. grpl (Chk1 mutants) results from a p-element insertion and is a genetic null. Homozygotes of the latter were identified by the lack of GFP marker on the balancer chromosome. Minute mutants were of the genotypes y[1]w[*]; P[w[+mC]=lacW]RpS131/CyO and P[lacW]RpL36G0471 w67c23/FM7a. Because Minute mutants were in yw or w background, y1w1 (Bloomington stock #1495) was used as ‘wild type’ control in these experiments.
Feeding stage 3rd instar larvae were irradiated as previously described (2). Briefly, 120 hr old larvae were rinsed to remove food and passed through sizing sieves to obtain animals of uniform size. Larvae were placed in a Petri dish and irradiated using a TORREX X-ray generator, set at 115 kV and 5 mA (producing 2.4 Rads/sec or 1.44 Gy/min) Irradiated larvae were then cultured on cornmeal-agar media (2) containing drug or DMSO carrier. In all experiments using human cells, cells in 96-well plates were irradiated with a RS2000 Biological Irradiator (Rad Source Technologies, Inc.) delivering 1 Gy/min.

[2] = tested on: wild type Drosophila larvae; experiment: Drosophila larval survival to adulthood (eclosion), drug with and without IR, wild type; type: in vivo; conditions: wild type Drosophila larvae
Protocol: as §1, §2, §3, §4
Feeding stage 3rd instar larvae were irradiated as previously described (2). Briefly, 120 hr old larvae were rinsed to remove food and passed through sizing sieves to obtain animals of uniform size. Larvae were placed in a Petri dish and irradiated using a TORREX X-ray generator, set at 115 kV and 5 mA (producing 2.4 Rads/sec or 1.44 Gy/min) Irradiated larvae were then cultured on cornmeal-agar media (2) containing drug or DMSO carrier. […]

[3] = tested on: Det562 Head and Neck Squamous Cell Carcinoma cells; experiment: Streptovitacin A alone and in combination with taxol on human cancer cells; type: cell-based; conditions: at a wide range of doses
Protocol: FIG. 11 depicts that streptovitacin A synergizes with taxol on Det562 Head and Neck Cancer cells. Concentrations for streptovitacin/taxol are shown. CI=1 indicates additive effects; CI>1 indicates antagonistic effects; CI<1 indicates synergy. The y-axis is “Combination Index” (CI).
The effect of streptovitacin A on human cancer cells alone and in combination with taxol was tested.
FIG. 11 depicts that at a wide range of doses the two drugs are synergistic (CI<1) in Det562 Head and Neck Squamous Cell Carcinoma cells.

[4] = tested on: H157 lung cancer cells; experiment: CellTiter-Glo Luminescent Cell Viability Assay, Streptovitacin with ionizing radiation, H157; type: cell-based, human; conditions: drug added 24 hr before irradiation
Protocol: FIG. 15 depicts CI values for Streptovitacin A and radiation on H157 lung cancer cells.
For FIG. 15 CellTiter-Glo® Luminescent Cell Viability Assay (Promega G7570) were used to determine the effect of Streptovitacin (concentrations in uM) in combination with ionizing radiation (in Gy, X-axis). The drug was added 24 hr before irradiation. (A) Faction affected (Fa) determined by the following formula 1−(x/y) where x is the experimental sample and y is the no Bouvardin/no drug control) (B) Corresponding CI values. Cells were irradiated in a Faxitron X-ray cabinet x-ray system (Lincolnshire, Ill.) set at 115 kV and 5 mA (producing 5.33 Rads/sec or 3.2 Gy/min) Note that this X-ray machine, produces a higher dose rate (lower exposure time) than the X-ray machine used on H157 cells in FIG. 18. Even with the same settings, higher IR doses are needed to achieve the same Fa. More important, combinatorial effects with drugs are similar if not identical on the two machines.

[5] = tested on: Drosophila Chk1 or p53 mutant larvae; experiment: Drosophila screen for agents that increase the sensitivity of mutant larvae to radiation (NCI Diversity Set I and Natural Products Set); type: in vivo; conditions: irradiated Drosophila Chk1 or p53 mutant larvae
Source text: The Diversity Set I from the NCI-DTP, which is comprised of 1990 molecules chosen for chemical structural diversity and not for biological activity was screened using the Drosophila screen (U.S. Pat. No. 7,695,899).
Table 1. […] A total of 2225 molecules in Diversity Set I (n=1990) and Natural Products Set (n=235) libraries from the NCI-DTP were screened for agents that increased the sensitivity of Drosophila Chk1 or p53 mutant larvae to radiation. […] MT=microtubule; DS=double strand; topo=topoisomerase; NT=nucleotide
The Natural Product Set, also from the NCI-DTP, which contains 235 small molecules derived from natural sources was selected next. These molecules were identified initially in extracts from plants, microbes and marine organisms, but are now synthesized to sufficient purity for distribution by the NCI as plated sets.
The screen was performed using irradiated mutant larvae. Hits from the screen were defined as those that reduced the survival of IRRADIATED larvae compared to the population of drugs being tested (approximately 80 molecules at a time) or compared to DMSO controls in the re-test. A hit could therefore act by enhancing the effect of radiation, or by simply killing larvae as a single agent, or both. To distinguish among these possibilities, hits from the screen were re-tested against larvae with and without irradiation.

[6] = tested on: Det562 cells; experiment: CellTiter-Glo Luminescent Cell Viability Assay, Bouvardin with Taxol, Det562; type: cell-based, human; conditions: Det562 versus FaDu
Protocol: “Combination Index” computation. Combination Indices were calculated using CalcuSyn software (Biosoft), which uses the method of Chou and Talalay. This method first computes drug-induced effect using the Hill Equation: where E is the measured effect; C is the drug concentration; Emax is the full range of drug effect, usually at or near 100%; IC50 is the drug concentration producing the median effect of 50%; and n is the curve shape parameter describing the steepness of the concentration-effect relationship. The Chou and Talalay method then linearizes the Hill Equation by logarithmic transformation as: where fu is the fraction of cells left unaffected after drug exposure, fa is the fraction of cells affected by the exposure, C is the drug concentration used, Cm is the concentration to achieve the median effect, and n is the curve shape parameter. Cm and n are equivalent to IC50 and n, respectively, in the Hill Equation. The values of n (obtained from the slope), nlog(Cm) (obtained from the absolute value of the intercept), and, therefore, Cm are obtained by plotting log(fu−1−1) versus log(C). […]
The growth inhibitory effects of Bouvardin with Taxol were evaluated using CellTiter-Glo® Luminescent Cell Viability Assay (Promega G7570). […] Luminescence of each well was measured using an automated plate reader.

[7] = tested on: xenografts of Rhabdomyosarcoma; conditions: cited from earlier work
[8] = tested on: cells from human squamous cell carcinoma, melanoma, non-small cell lung carcinoma, malignant gliomas and small cell lung cancer; conditions: Topotecan and its analogs; preclinical models; cited from earlier work

C[C@H]1C[C@@](C)(O)C[C@@H]([C@H](O)CC2CC(=O)NC(=O)C2)C1=O [Streptovitacin A, streptovitacin A]
fraction of p53 mutant larvae that survive to adulthood versus wild type larvae [1]: lower than the fraction of wild type larvae that survive to adulthood | fraction of p53 mutant larvae that survive to adulthood versus wild type larvae ([1]; listed as streptovitacin A): kills p53 mutant larvae selectively over wild type larvae | manner in which drug and ionizing radiation act together to kill larvae [2]: act synergistically | observed average for the combination versus expected additive value ([2]; 10 μM drug + IR): significantly lower than the expected additive value | Combination Index (CI), streptovitacin A with taxol [3]: < 1 | interaction of drug with radiation [4]: synergize at most combinations tested

C[C@H]1CC[C@@H](C(C)(C)O)CC2=C1CC[C@@H]2C [Guaiol]
Reproducible hit that increased the sensitivity of larvae to radiation; screen in which identified [5]: Guaiol (2)

CC[C@H](C)[C@H]1NC(=O)[C@@H](NC(=O)[C@@H](CC(C)C)N(C)C(=O)[C@@H]2CCCN2C(=O)C(C)O)[C@@H](C)OC(=O)[C@H](Cc2ccc(OC)cc2)N(C)C(=O)[C@@H]2CCCN2C(=O)[C@H](CC(C)C)NC(=O)[C@@H](C)C(=O)[C@H](C(C)C)OC(=O)C[C@@H]1O (stereo partly shown) [Didemnin B]
Reproducible hit that increased the sensitivity of larvae to radiation; screen in which identified [5]: Didemnin B (2)

CC[C@@]1(O)C(=O)OCc2c1cc1n(c2=O)Cc2cc3ccccc3nc2-1 [20-S Camptothecin]
Reproducible hit that increased the sensitivity of larvae to radiation; screen in which identified [5]: Camptothecin (1)

CC(=O)O[C@H]1C(=O)[C@@]2(C)[C@H]([C@H](OC(=O)c3ccccc3)[C@]3(O)C[C@H](OC(=O)[C@H](O)[C@@H](NC(=O)c4ccccc4)c4ccccc4)C(C)=C1C3(C)C)[C@]1(OC(C)=O)CO[C@@H]1C[C@@H]2O [Taxol, paclitaxel, reference compound]
sensitivity of cells to Taxol alone [6]: more sensitive to Taxol alone than FaDu cells

Bleomycin
Reproducible hit that increased the sensitivity of larvae to radiation; screen in which identified [5]: Bleomycin (2)

CC[C@@]1(O)C(=O)OCc2c1cc1n(c2=O)Cc2cc3c(CN(C)C)c(O)ccc3nc2-1 [Topotecan]
interaction with radiation [7]: Synergy between Topotecan and radiation has been confirmed | interaction with radiation [8]: synergize with radiation
